From patent publication US4966962A, “Reverse analogue of actinomycin D” (Trustees of Boston University, priority 1988, dated 1990)
Where two headings read alike, the source gives them in different places. *1 amine or outer side, *2 acyl side, *3 side chain or, on linkers, in order; H or OH if unused. Where a SMILES comes first, the peptide text is derived from it. Bridges are numbered along the chain shown (N, C = ends). Roman numbers before positions name the chains, in order. [ ]: non-standard residue; d: D form. Actinocin(9to1) = Cc1c2oc3c(C)ccc(C(=O)[*:1])c3nc-2c(C(=O)[*:2])c(N)c1=O; NMeV = CN[C@H](C(=O)O)C(C)C; Sar = CNCC(=O)O

Key:
[1] = system: rat liver microsomes; assay: Stimulation of NADPH oxidation by rat hepatic microsomal incubations; format: biochemical; conditions: for percentage stimulation of NADPH oxidation: (drug-stimulated rate - basal rate)/basal rate × 100; for NADPH oxidation: measured at 340 nm, average ± standard error of triplicate
Description: It has been reported that the quinone imino chromophore of actinomycin can be subjected to enzyme-catalyzed single-electron reduction to give free-radical species that generate superoxides by reacting with molecular oxygen. The process needs a reductive cofactor NADPH, which is oxidized to NADP^+ during the process, giving a change in the absorbance at 340 nm that can be measured spectrophotometerically. Alternatively, the superoxides generated during the process may be allowed to react with epinephrine to produce adrenochrome, a chromophore with strong absorbance at 480 nm that can be measured spectrophotmetrically.
The superoxide formations were studied via NADPH oxidation catalyzed by AMD analogues in the presence of rat liver microsomes. […] The process of adrenochrome formation is inhibited by superoxide dismutase, confirming that superoxide is indeed generated in these systems.
^a The percentage stimulation = (drugstimulated rate basal rate)/basa
rate × 100 and is shown in parentheses. NADPH oxidation was measure
at 340 nm and adrenochrome formation was measured at 489 nm; the values
are average ± standard errors of triplicate analyses. ^b SOD,

[2] = Metabolism in tumor cell homogenate (T); format: in vitro ADME, murine; conditions: P388 homogenate (T), 37° C., 16 h
Experimental: (§1) In this respect, actinomycin is only about 30% as efficient as its synthetic analogues, RAD III (3c) and SAD (2) (Table II). Metabolic Studies, Metabolism in the Presence of Tumor Cell Homogenates and Rat Liver Microsomes. The cell homogenates (P388 cells were sonicated and were incubated at 37° C. with analogues for 16 h. Rat microsomes were harvested from phenobarbital-induced rats by standard procedure. Incubations were carried out for 6 h in the presence of a NADPH-generating system, i.e., glucose-6-phosphate dehydrogenase and glucose 6-phosphate. The metabolites and their water-soluble conjugates were isolated and identified with the use of tritiated analogues.
(§2) It was observed that the RAD analogues are metabolized to SAD (2) with the loss of oxazole ring. […] In tumor cells, a larger fraction of SAD (2) (30-50%) remains unmetabolized. SAD is found to form glucuronide and sulfate conjugates only in tumor cells. […] Isolation of SAD from RAD analogues is a very important step, because SAD is found to be a potent and effective antitumor agent in several murine tumor systems (Tables V-XII).

[3] = system: rat liver microsomes; assay: Metabolism in rat liver microsomes (M); format: in vitro ADME; conditions: 6 h, NADPH-generating system
Experimental: as §1, §2

[4] = system: human colon carcinoma HT-29; assay: Inhibition of nucleic acid synthesis in HT-29 cells in vitro; format: cell-based; conditions: 2-h exposure
Description: In addition to the P388 cells, this inhibitory activity in human carcinoma HT-29 grown in tissue culture has been also examined. The values of the drug concentration producing 50% inhibition of the incorporation of [^3 H]-thymidine and [^14 C] uridine into nucleic acid macromolecules are presented in Table V. These values are taken as estimates of the inhibition of DNA and RNA synthesis. […] Furthermore, the inhibitory activities of these analogues are three-to fivefold higher than AMD; the order of potency of the analogues for their inhibition of DNA synthesis is:
DNA and RNA synthesis in P388 and HT-29 cells lines was monitored in the presence of drugs, and the rates of inhibition of their synthesis were estimated from the amounts of [2-^14 C]-uridine and [^3 H]-thymidine into RNA and DNA, respectively, according to the methods described previously.
In brief, for HT-29 colon carcinoma monolayer cells, 10^4 cells in each of five wells per concentration, were incubated with radiolabelec nucleosides ([…] each) for the last hour of a 2-h drug exposure, following which the cells were aspirated and washed with buffered medium. Cells were trypsinized and counted in the Coulter counter. The cell suspensions were then precipitated onto glass fiber filter discs (Whatman 934H), with 10% trichloracetic acid and twice with 95% ethanol and dried, and the incorporation of radionucleotides was estimated.
In addition, to investigate the cross contamination of radioactivity from [2^14 C] uridine, the cells were lysed with ice-cold 1% Triton X for 2.5 min. Macromolecules were precipitated with the addition of 10% perchloric acid (5% in the medium) and centrifuged; the pellet in 1% NaCl was treated with an equal volume of phenol reagent, the emulsion was centrifuged at 10000 g for 30 min at 4° C., and the separated layer was adjusted to 1% NaCl and treated with an equal volume of 2-ethoxyethanol to precipitate the nucleic acids. The precipitate was washed with 75% ethanol and dissolved in an aqueous solution containing 2% sodium acetate and 1.5% NaCl. An aliquot was used for estimation of the total radionucleotide incorporation. Ribonuclease, previously heated to 80° C. for 10 min to destroy deoxyribonuclease activity, was added, and the mixture was incubated at 37° C. for 30 min.
^a Human colon carcinoma in culture, IC50, drug concentration
producing a 50% inhibition of incorporation of precursor [^3 H]
thymidine into DNA and [^14 C] uridine into RNA in the cell lines,
isolated as acid preciptable materials. Data are average of replicate

[5] = system: colon 38 adenocarcinoma; assay: Activity against advanced colon carcinoma C38 tumor; format: in vivo, CDF1 mice; conditions: for % inhibn of tumor: tumors measured day 21
Experimental: In view of favorable activity agianst colon 26 carcinoma, further experiments using the active analogues were carried out on the advanced colon adenocarcinomas of mouse colon 38. […] The superiority of RAD III and SAD over AMD in inhibiting colon 38 carcinoma is evident from the data of both tumor weight inhibition and increases in survival time of the treated over nontreated mice and the larger number of long-term survivors produced by these analogues.
^a CDF1 mice were injected sc with colon 38 adenocarcinoma
fragments (70 mg) and treated with drugs with iv injections on day 1, 5,
and 9 following tumor imoplantation on day 0. ^b [100 (tumor weight o
treated mice/tumor weight of untreated mice)] × 100; data pooled
from two experiments, tumors measured on day 21 after implantation ^c
(Median survival time of treated mice/median survival of untreated mice)
× 100; in parenthesis, number of over 100 day survivors/number of […]

[6] = system: lung LX-1; assay: Treatment of lung LX-1 tumor; format: in vivo; conditions: at the doses tested
[7] = system: P388 Leukemia; assay: Minimum effective dose in P388 tumor bearing mice; format: in vivo; conditions: for therapeutic index MTD/MED: MTD in normal BDF1 mice / MED in P388 tumor bearing mice; for MED (minimum effective dose), dose giving 45% increase in life span over control: ip once on days 1, 5, and 9, from plotted log-dose response data
Description: ^a Drugs administered ip once on days 1, 5, and 9 starting 1 day afte
tumor implantation. Determinations were made from analysis of plotted
logdose response data. ^b MED (minimum effective dose) is the dose
(milligram/killogram) providing an increase in life span of 45% over

[8] = [3H]thymidine incorporation, read-out: IC50, DNA synth
[9] = [14C]uridine incorporation, read-out: IC50, RNA synth
[10] = dose 0.075 mg/kg iv days 1, 5, 9
[11] = dose 0.15 mg/kg iv days 1, 5, 9
[12] = dose 0.30 mg/kg iv days 1, 5, 9
[13] = dose 0.45 mg/kg iv days 1, 5, 9
[14] = dose 0.60 mg/kg iv days 1, 5, 9
[15] = dose 1.20 mg/kg iv days 1, 5, 9

| SMILES | percentage stimulation of NADPH oxidation [1] | NADPH oxidation [1] | percent unconverted drug [2] | percent unconverted drug [3] | IC50 [4, 8] | IC50 [4, 9] | % T/C (median survival time) [5, 11] | % inhibn of tumor [5, 11] | % T/C (median survival time) [5, 12] | % inhibn of tumor [5, 12] | % T/C (median survival time) [5, 14] | % inhibn of tumor [5, 14] | response of lung LX-1 to treatment [6] | therapeutic index MTD/MED [7] | MED (minimum effective dose), dose giving 45% increase in life span over control [7] | over 100 day survivors/number of mice [5, 14] | % T/C (median survival time) [5, 15] | over 100 day survivors/number of mice [5, 15] | % inhibn of tumor [5, 15] | also measured |
| --- | --- | --- | --- | --- | --- | --- | --- | --- | --- | --- | --- | --- | --- | --- | --- | --- | --- | --- | --- | --- |
| Cc1c2oc3c(C)ccc(C(=O)N[C@@H]4C(=O)N[C@H](C(C)C)C(=O)N5CCC[C@H]5C(=O)N(C)CC(=O)N(C)[C@@H](C(C)C)C(=O)O[C@@H]4C)c3nc-2c(C(=O)N[C@@H]2C(=O)N[C@H](C(C)C)C(=O)N3CCC[C@H]3C(=O)N(C)CC(=O)N(C)[C@@H](C(C)C)C(=O)O[C@@H]2C)c(N)c1=O [AMD (1), Actinomycin D] (I: T[dV]P[Sar][NMeV] / II: T[dV]P[Sar][NMeV]; ester I:1-I:C, II:1-II:C; linker I:N-II:N via Actinocin(9to1)) | 9.9% | 10.01 ± 0.90 nmol/min per mg of protein | 100% | 100% | 900 ± 80 nM | 100 ± 11 nM | 107% | 30% | 134% | 67% | 103% | 89% | practically ineffective | 4 | 0.0625 milligram/killogram |  |  |  |  | % T/C (median survival time) [5, 10]: 100%; % inhibn of tumor [5, 10]: 30%; % T/C (median survival time) [5, 13]: 170%; % inhibn of tumor [5, 13]: 83% |
| Cc1c2oc3c(C)c4oc(-c5ccccc5)nc4c(C(=O)N[C@@H]4C(=O)N[C@H](C(C)C)C(=O)N5CCC[C@H]5C(=O)N(C)CC(=O)N(C)[C@@H](C(C)C)C(=O)O[C@@H]4C)c3nc-2c(C(=O)N[C@@H]2C(=O)N[C@H](C(C)C)C(=O)N3CCC[C@H]3C(=O)N(C)CC(=O)N(C)[C@@H](C(C)C)C(=O)O[C@@H]2C)c(N)c1=O [RAD II (3b)] | 610% | 65.0 ± 5.95 nmol/min per mg of protein |  |  | 580 ± 55 nM | 68 ± 10 nM | 103% | 29% | 137% | 70% | 170% | 83% |  | 67 | 0.03 milligram/killogram | 3/9 | 103% | 2/9 | 88% | over 100 day survivors/number of mice [5, 11]: 1/9 |
| Cc1c2oc3c(C)c4oc(CC(=O)NCCCCN)nc4c(C(=O)N[C@@H]4C(=O)N[C@H](C(C)C)C(=O)N5CCC[C@H]5C(=O)N(C)CC(=O)N(C)[C@@H](C(C)C)C(=O)O[C@@H]4C)c3nc-2c(C(=O)N[C@@H]2C(=O)N[C@H](C(C)C)C(=O)N3CCC[C@H]3C(=O)N(C)CC(=O)N(C)[C@@H](C(C)C)C(=O)O[C@@H]2C)c(N)c1=O [RAD III (3c)] | 812% | 87.1 ± 7.1 nmol/min per mg of protein | 20.0 ± 2.5% | 10.0 ± 1.0% | 365 ± 45 nM | 45 ± 8 nM |  |  | 170% | 80% | 250% | 93% | practically ineffective | 70 | 0.05 milligram/killogram | 6/9 | 231% | 3/9 | 94% | percent isolated: tissue bound [2]: 5.0 ± 1.0%; percent isolated: unidentified metabolite [2]: 5.0 ± 2.0%; percent metabolite isolated: SAD [2]: 20.0 ± 2.0%; percent metabolite isolated: SAD-glucuronide and/or sulfate [2]: 40.0 ± 5.5%; percent metabolite isolated: protein conjugates [2]: 8.0 ± 2.0%; percent isolated: tissue bound [3]: 5.0 ± 0.5%; percent isolated: unidentified metabolite [3]: 8.0 ± 1.0%; percent metabolite isolated: SAD [3]: 65.0 ± 5.5%; percent metabolite isolated: SAD-glucuronide and/or sulfate [3]: nil; percent metabolite isolated: protein conjugates [3]: 10.0 ± 10%; over 100 day survivors/number of mice [5, 12]: 1/9; activity relative to AMD at equivalent doses ([5]; every 4 days, three times, from day 1 after implant): about 150% |
